Assay results reported in patent publication US20240376154A1, “BIS-INTERCALATING PEPTIDES, CONJUGATES AND METHODS OF USE” (ZYMEWORKS BC INC., priority 2023, published 2024).

Tests used:
[1] = Lipophilicity by experimental HPLC retention time; assay type: physicochemical; settings: HPLC retention time as measure of lipophilicity; C18, 10 to 90% CH3CN/H2O with 0.1% FA over 25 min
Procedure: The ability to kill neighboring cells (i.e. bystander effect) is an important property for ADC payloads. For a payload comprising a compound of Formula I to be capable of bystander killing, membrane permeability (or transport) is required and the ability of compounds of Formula I to cross cell membranes and exert a cytotoxic effect was expected to be heavily influenced by lipophilicity.
Compounds were analyzed using an Agilent 1260 HPLC (Agilent Technologies, Inc., Santa Clara, CA) equipped with a Diode array detector and using a Phenomenex Kinetex EVO C18 150×4.6, 2.6 μm column (Phenomenex, Torrance, CA), eluting with 10 to 90% CH3CN/H2O with 0.1% FA over 25 min.

[2] = test system: tumour cells (at least 4 of a panel of ovarian, breast, lung, pancreatic, placenta, colon cell lines); assay: In vitro cytotoxicity (cell proliferation, CellTiter-Glo), average over tumour cell line panel; assay type: cell-based; settings: average pIC50 on all cell lines tested; 5 nights incubation; CellTiter-Glo
Procedure: The ability of representative compounds of Formula I to inhibit proliferation of tumour cells in vitro was evaluated in at least 4 of the following cell lines: OVCAR-3 (ovarian, ATCC), SKOV-3 (ovarian, ATCC), IGROV-1 (ovarian, national research council of Canada (NRC)), OV-90 (ovarian, ATCC), OVKATE (Ovarian, Japanese Collection of Research Bioresources (JCRB) (JCRB1044)), JIMT-1 (breast, NRC), SK-BR-3 (breast, ATCC), T-47D (breast, ATCC), ZR-75-1 (breast, ATCC), MDA-MB-468 (breast, AddexBio), BT-20 (breast, ATCC), BT-474 (breast, NRC), MDA-MB-175 (breast, AddexBio), A549 (lung, collaborator), NCI-H226 (lung, NRC), NCI-H661 (lung, NRC), NCI-H1573 (lung, ATCC). NCI-H1563 (lung, ATCC), H358 (lung, collaborator), EBC-1 (lung, Xenotech), H1299 (lung, NRC), NCI-H292 (lung, ATCC), HCC817 (lung, ATCC), NCI-H441 (lung, ATCC), MIA-PaCa-2 (pancreatic, ATCC), BxPC-3 (pancreatic, ATCC), Panc-1 (pancreatic, ATCC), AsPC-1 (pancreatic, ATCC), JEG-3 (placenta, AddexBio), HT-29 (colon, ATCC).
Cells were cultured per vendor instructions and in log-phase growth were detached by brief incubation in 0.05% trypsin, then resuspended in respective culturing media at 20,000 cells/mL (except for ZR-75 cells, which were resuspended at 10,000 cells/mL). 50 μL/well (˜1000 cells/well) were transferred to sterile tissue culture (TC)-treated 384-well plates (ThermoFisher Scientific, Catalogue #164610) and incubated overnight at 37° C. with 5% CO2 to allow the cells to adhere to the plate surface. The next day, in a sterile, V-bottom, 96-well plate, test articles were titrated 1:3 in complete growth medium, creating a 10-point dose response titration with compounds at 3.5-times the desired final concentration. 20 μL from each dilution were added to the 384-well plate containing the seeded cells and these plates were incubated at 37° C. with 5% CO2 for 5 nights. Cell viability was quantified by first incubating with 15 μL/well of CellTiter-Glo® (Promega, Catalogue #G7572) for 30 minutes, then measuring luminescence with a microplate luminometer (BioTek® Synergy™ H1 Microplate Reader). IC50 values were determined by GraphPad Prism (GraphPad Software, San Diego, CA).
The results are presented in Table 7.1 and discussed in Example 7. Table 7.1 presents the results as average pIC50 values. pIC50=−log (IC50), thus, for example, pIC50=9 is equivalent to IC50=1 nM, and pIC50=6 is equivalent to IC50=1 μM.

herring sperm DNA = assay: DNA melting temperature by differential scanning calorimetry (DSC); assay type: binding; settings: DSC; herring sperm DNA; DNA melting temperature = 68° C.
Procedure: Representative compounds prepared as described in Example 2 were assessed in two complementary DNA-binding assays. Increased melting temperature of herring sperm DNA was measured using differential scanning calorimetry (DSC) and binding kinetics were determined by surface plasmon resonance (SPR) using a short DNA hairpin sequence.
DSC experiments were conducted as described in Leng, 2003, Nucleic Acids Res., 31 (21): […], using a Nano DSC (TA Instruments, New Castle, DE) and analyzed using the NanoAnalyze™ software package. Herring sperm DNA solution (Invitrogen 15634017, 10 mg/mL) was diluted to 1 mg/mL (1.4 mM base pair) in BPE buffer (6 mM Na2HPO4, 2 mM NaH2PO4, 1 mM Na4EDTA, pH 7.0). Test articles (20 μL, 10 mM in DMSO) were added and allowed reach equilibrium binding (>3 h), any insoluble material was removed by low-speed centrifugation, then samples were heated from 25 to 110° C. at a scan rate of 1° C./min. Melting curves were plotted and melting temperature was determined using NanoAnalyze™.

In the case of `CC(C)[C@H]1C(=O)O[C@H](C)[C@@H](NC(=O)c2nc3ccccc3cc2O)C(=O)N2CCCC[C@H]2C(=O)NCC(=O)N(C)CC(=O)N(C)[C@@H](C(C)C)C(=O)O[C@H](C)[C@@H](NC(=O)c2nc3ccccc3cc2O)C(=O)N2CCCC[C@H]2C(=O)NCC(=O)N(C)CC(=O)N1C` [Compound 22, N,N′-((7R,8R,11S,19aS,26R,27R,30S,38aS)-11,30-diisopropyl-8,12,15,27,31,34-hexamethyl-6,10,13,16,19,25,29,32,35,38-decaoxodotriacontahydro-2H,6H,10H,25H-dipyrido[2,1-b1: 2′,1′-l][1,17]dioxa[4,7,10,13,20,23,26,29]octaazacyclodotriacontine-7,26-diyl)bis(3-hydroxyquinoline-2-carboxamide)], the “HPLC” value [1] is reported as 21.6 min, the “pIC50 (average)” value [2] is reported as 7.6 and the “DNA melt (° C.)” value (herring sperm DNA) is reported as 85 °C.
With `CC[C@H](C)[C@H]1C(=O)NC[C@@H](NC(=O)c2nc3ccccc3cc2O)C(=O)N2CCCC[C@H]2C(=O)NCC(=O)N(C)CC(=O)N(C)[C@@H]([C@@H](C)CC)C(=O)O[C@H](C)[C@@H](NC(=O)c2nc3ccccc3cc2O)C(=O)N2CCCC[C@H]2C(=O)NCC(=O)N(C)CC(=O)N1C` [Compound 30, N,N′-((7R,8R,11S,19aS,26R,30S,38aS)-11,30-di((S)-sec-butyl)-8,12,15,31,34-pentamethyl-6,10,13,16,19,25,29,32,35,38-decaoxotetratriacontahydro-2H,6H,10H-dipyrido[2,1-b1: 2′,1′-l][1]oxa[4,7,10,13,17,20,23,26,29]nonaazacyclodotriacontine-7,26-diyl)bis(3-hydroxyquinoline-2-carboxamide)] the “HPLC” value [1] was 20.9 min, the “pIC50 (average)” value [2] was 8.3 and the “DNA melt (° C.)” value (herring sperm DNA) was 85 °C.
For `CC(C)[C@H]1C(=O)NC[C@@H](NC(=O)c2nc3ccccc3cc2O)C(=O)N2CCCC[C@H]2C(=O)NCC(=O)N(C)CC(=O)N(C)[C@@H](C(C)C)C(=O)NC[C@@H](NC(=O)c2nc3ccccc3cc2O)C(=O)N2CCCC[C@H]2C(=O)NCC(=O)N(C)CC(=O)N1C` [Compound 35, N,N′-((7R,11S,19aS,26R,30S,38aS)-11,30-diisopropyl-12,15,31,34-tetramethyl-6,10,13,16,19,25,29,32,35,38-decaoxohexatriacontahydro-2H,6H-dipyrido[1,2-a:1′,2′-q][1,4,7,10,13,17,20,23,26,29]decaazacyclodotriacontine-7,26-diyl)bis(3-hydroxyquinoline-2-carboxamide)], the “HPLC” value [1] was 17.1 min, the “pIC50 (average)” value [2] was 7.3 and the “DNA melt (° C.)” value (herring sperm DNA) was 88 °C.
For `CC(C)[C@H]1C(=O)N(C)C[C@@H](NC(=O)c2nc3ccccc3cc2O)C(=O)N2CCCC[C@H]2C(=O)NCC(=O)N(C)CC(=O)N(C)[C@@H](C(C)C)C(=O)N(C)C[C@@H](NC(=O)c2nc3ccccc3cc2O)C(=O)N2CCCC[C@H]2C(=O)NCC(=O)N(C)CC(=O)N1C` [Compound 42, N,N′-((7R,11S,19aS,26R,30S,38aS)-11,30-diisopropyl-9,12,15,28,31,34-hexamethyl-6,10,13,16,19,25,29,32,35,38-decaoxohexatriacontahydro-2H,6H-dipyrido[1,2-a:1′,2′-q][1,4,7,10,13,17,20,23,26,29]decaazacyclodotriacontine-7,26-diyl)bis(3-hydroxyquinoline-2-carboxamide)], the “HPLC” value [1] was 17.7 min, the “pIC50 (average)” value [2] was 7.3 and the “DNA melt (° C.)” value (herring sperm DNA) was 88 °C.
In the case of `CN1CC(=O)N2CCCC[C@H]2C(=O)NC[C@@H](NC(=O)c2nc3ccccc3cc2O)C(=O)N2CCCC[C@H]2C(=O)NCC(=O)N(C)CC(=O)N2CCCC[C@H]2C(=O)NC[C@@H](NC(=O)c2nc3ccccc3cc2O)C(=O)N2CCCC[C@H]2C(=O)NCC1=O` [Compound 49, N,N′-((7R,10aS,22aS,29R,32aS,44aS)-18,40-dimethyl-6,10,16,19,22,28,32,38,41,44-decaoxotetratetracontahydrotetrapyrido[1,2-a:1′,2′-j:1″,2″-q:1″,2′″-z][1,4,7,10,13,17,20,23,26,29]decaazacyclodotriacontine-7,29-diyl)bis(3-hydroxyquinoline-2-carboxamide)], the “HPLC” value [1] is reported as 15.7 min, the “pIC50 (average)” value [2] is reported as 7.2 and the “DNA melt (° C.)” value (herring sperm DNA) is reported as 97 °C.
With `CC(C)[C@H]1C(=O)NC[C@@H](NC(=O)c2nc3ccccc3cc2O)C(=O)N2CCCC[C@H]2C(=O)NCC(=O)N(C)CC(=O)N(C)[C@@H]([C@@H](C)OC(C)(C)C)C(=O)NC[C@@H](NC(=O)c2nc3ccccc3cc2O)C(=O)N2CCCC[C@H]2C(=O)NCC(=O)N(C)CC(=O)N1C` [Compound 54, N,N′-((7R,11S,19aS,26R,30S,38aS)-11-((R)-1-(tert-butoxy)ethyl)-30-isopropyl-12,15,31,34-tetramethyl-6,10,13,16,19,25,29,32,35,38-decaoxohexatriacontahydro-2H,6H-dipyrido[1,2-a:1′,2′-q][1,4,7,10,13,17,20,23,26,29]decaazacyclodotriacontine-7,26-diyl)bis(3-hydroxyquinoline-2-carboxamide)] the “HPLC” value [1] was 18.4 min, the “pIC50 (average)” value [2] was 8.1 and the “DNA melt (° C.)” value (herring sperm DNA) was 88 °C.
With `CC(C)[C@H]1C(=O)NC[C@@H](NC(=O)c2nc3ccccc3cc2O)C(=O)N2CCCC[C@H]2C(=O)NCC(=O)N(C)CC(=O)N(C)[C@@H]([C@@H](C)O)C(=O)NC[C@@H](NC(=O)c2nc3ccccc3cc2O)C(=O)N2CCCC[C@H]2C(=O)NCC(=O)N(C)CC(=O)N1C` [Compound 55, N,N′-((7R,11S,19aS,26R,30S,38aS)-11-((R)-1-hydroxyethyl)-30-isopropyl-12,15,31,34-tetramethyl-6,10,13,16,19,25,29,32,35,38-decaoxohexatriacontahydro-2H,6H-dipyrido[1,2-a:1′,2′-q][1,4,7,10,13,17,20,23,26,29]decaazacyclodotriacontine-7,26-diyl)bis(3-hydroxyquinoline-2-carboxamide)] the “HPLC” value [1] was 10.6 min, the “pIC50 (average)” value [2] was “inactive” and the “DNA melt (° C.)” value (herring sperm DNA) was 86 °C.
For `CC[C@H](C)[C@H]1C(=O)NC[C@@H](NC(=O)c2nc3ccccc3cc2O)C(=O)N2CCCC[C@H]2C(=O)NCC(=O)N(C)CC(=O)N(C)[C@@H](C(C)C)C(=O)NC[C@@H](NC(=O)c2nc3ccccc3cc2O)C(=O)N2CCCC[C@H]2C(=O)NCC(=O)N(C)CC(=O)N1C` [Compound 72], the “HPLC” value [1] was 18.0 min, the “pIC50 (average)” value [2] was 7.6 and the “DNA melt (° C.)” value (herring sperm DNA) was 89 °C.
In the case of `CC(C)[C@H]1C(=O)NC[C@@H](NC(=O)c2nc3ccccc3cc2O)C(=O)N2CCCC[C@H]2C(=O)NCC(=O)N(C)CC(=O)N2CCC[C@H]2C(=O)NC[C@@H](NC(=O)c2nc3ccccc3cc2O)C(=O)N2CCCC[C@H]2C(=O)NCC(=O)N(C)CC(=O)N1C` [Compound 77], the “HPLC” value [1] is reported as 15.0 min, the “pIC50 (average)” value [2] is reported as 6.9 and the “DNA melt (° C.)” value (herring sperm DNA) is reported as 88 °C.
